Legend:
Conditions in all cases: 72 h
Caco-2 [1] = test: cell viability relative to DMSO; higher = less toxic
Calu-3 [2] = test: as above
HepG2 [3] = test: as above
U2OS [4] = test: as above
Vero E6 [5] = test: as above
Caco-2 [6] = test: relative viability EC50 (midpoint between 100% and the lowest measured viability); higher = less toxic
Calu-3 [7] = test: as above
HepG2 [8] = test: as above
U2OS [9] = test: as above
Vero E6 [10] = test: as above
Caco-2 [11] = test: drug sensitivity score (DSS) for viability; higher = more toxic; extreme values may be limits of the assay
Calu-3 [12] = test: as above
HepG2 [13] = test: as above
U2OS [14] = test: as above
Vero E6 [15] = test: as above

| SMILES | cell viability (Caco-2 [1]; 1 nM) [%] | cell viability (Caco-2 [1]; 10 nM) [%] | cell viability (Caco-2 [1]; 100 nM) [%] | cell viability (Caco-2 [1]; 1000 nM) [%] | cell viability (Caco-2 [1]; 10000 nM) [%] | cell viability (Calu-3 [2]; 1 nM) [%] | cell viability (Calu-3 [2]; 10 nM) [%] | cell viability (Calu-3 [2]; 100 nM) [%] | cell viability (Calu-3 [2]; 1000 nM) [%] | cell viability (Calu-3 [2]; 10000 nM) [%] | cell viability (HepG2 [3]; 1 nM) [%] | cell viability (HepG2 [3]; 10 nM) [%] | cell viability (HepG2 [3]; 100 nM) [%] | cell viability (HepG2 [3]; 1000 nM) [%] | cell viability (HepG2 [3]; 10000 nM) [%] | cell viability (U2OS [4]; 1 nM) [%] | cell viability (U2OS [4]; 10 nM) [%] | cell viability (U2OS [4]; 100 nM) [%] | cell viability (U2OS [4]; 1000 nM) [%] | cell viability (U2OS [4]; 10000 nM) [%] | cell viability (Vero E6 [5]; 1 nM) [%] | cell viability (Vero E6 [5]; 10 nM) [%] | cell viability (Vero E6 [5]; 100 nM) [%] | cell viability (Vero E6 [5]; 1000 nM) [%] | cell viability (Vero E6 [5]; 10000 nM) [%] | relative viability EC50 (Caco-2 [6]) [µM] | relative viability EC50 (Calu-3 [7]) [µM] | relative viability EC50 (HepG2 [8]) [µM] | relative viability EC50 (U2OS [9]) [µM] | relative viability EC50 (Vero E6 [10]) [µM] | drug sensitivity score (Caco-2 [11]) | drug sensitivity score (Calu-3 [12]) | drug sensitivity score (HepG2 [13]) | drug sensitivity score (U2OS [14]) | drug sensitivity score (Vero E6 [15]) |
| --- | --- | --- | --- | --- | --- | --- | --- | --- | --- | --- | --- | --- | --- | --- | --- | --- | --- | --- | --- | --- | --- | --- | --- | --- | --- | --- | --- | --- | --- | --- | --- | --- | --- | --- | --- |
| CCN1/C(=C/C(C)=O)Sc2ccc(OC)cc21 [TG-003] | 98.9 | 92.9 | 96.6 | 99.2 | 95.4 | 99.2 | 105 | 106 | 96.8 | 102 | 98 | 96.9 | 93 | 93.2 | 87.2 | 106 | 98.7 | 96.9 | 104 | 102 | 98.9 | 98.6 | 99.1 | 93.5 | 93.7 | > 10 | > 10 | > 10 | > 10 | > 10 | 0 | 0 | 0.1 | 0 | 0 |
| CC(C)[C@](O)(c1ccc2cc(OC(F)F)c(OC(F)F)cc2c1)c1c[nH]nn1 [VT-464] | 93.3 | 103 | 105 | 95.1 | 88.3 | 104 | 101 | 93.2 | 93 | 96.5 | 101 | 104 | 98.1 | 109 | 90.8 | 96.3 | 101 | 99.2 | 102 | 93 | 98.8 | 103 | 99.3 | 98.2 | 94.5 | > 10 | > 10 | > 10 | > 10 | > 10 | 0.2 | 0 | 0 | 0 | 0 |
| CCC(=O)OCC(=O)[C@@]1(OC(=O)CC)[C@H](C)C[C@H]2[C@H]3[C@H]([C@@H](O)C[C@@]21C)[C@@]1(C)C=CC(=O)C=C1C[C@H]3Cl [alclometasone-dipropionate] | 97.3 | 101 | 99.7 | 94.7 | 96.8 | 96 | 88.1 | 90.2 | 95.6 | 97.6 | 103 | 101 | 112 | 90.4 | 91.1 | 97.2 | 97 | 91.7 | 96.6 | 90.8 | 108 | 101 | 104 | 98 | 106 | > 10 | > 10 | > 10 | > 10 | > 10 | 0 | 0 | 0 | 0 | 0 |

Reference: the supplement of paper PMC13380429
